According to ChEMBL document CHEMBL3639321, “Triazolopyridine compounds as PIM kinase inhibitors” (2013):

What was measured:
[1] = target: Serine/threonine-protein kinase pim-2 (Homo sapiens, UniProt Q9P1W9); experiment: PIM-2 Enzyme Assay: The assay for the determination of PIM activity is based on the incorporation of [33P] ATP into PIM2tide substrate and capture of the radiolabeled peptide onto a Whatman P81 (phosphocellulose) filter plate. Assay mixtures contained 4 uM [gamma-33P] ATP (20 uCi/mL), 1.0 uM PIM2tide and […] PIM-2 in place of PIM-1.
Serine/threonine-protein kinase pim-2, sequence (Q9P1W9 whole entry): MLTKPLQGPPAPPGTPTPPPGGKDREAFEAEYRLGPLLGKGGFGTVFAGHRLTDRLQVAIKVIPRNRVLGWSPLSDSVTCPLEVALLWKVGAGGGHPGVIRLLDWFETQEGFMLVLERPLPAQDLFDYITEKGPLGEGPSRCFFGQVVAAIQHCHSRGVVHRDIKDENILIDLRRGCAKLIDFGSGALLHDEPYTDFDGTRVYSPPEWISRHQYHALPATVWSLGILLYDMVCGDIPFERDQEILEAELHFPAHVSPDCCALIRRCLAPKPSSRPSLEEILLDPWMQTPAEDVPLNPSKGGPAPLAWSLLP

[2] = target: Serine/threonine-protein kinase pim-3 (Rattus norvegicus, UniProt O70444); experiment: PIM-3 Enzyme Assay: The assay for the determination of PIM activity is based on the incorporation of [33P] ATP into PIM2tide substrate and capture of the radiolabeled peptide onto a Whatman P81 (phosphocellulose) filter plate. Assay mixtures contained 30 uM [gamma-33P] ATP (20 uCi/mL), 3.75 uM PIM2tide and 0.5 nM recombinant rat PIM-3 in place of PIM-1.

CC1(C)CC(Nc2cccc3ccc(-c4nnc5ccccn45)nc23)CC(C)(C)N1
IC50 [1]: ≥ 10000 nM | IC50 [2]: 448 nM
